Some test systems named below: SK-MEL-28; IGROV-1; RXF 393; NCI/ADR-RES; SK-MEL-5; EKVX; Hs-578T; SW-620; MDA-N; SN12C; NCI-H226; U-251; SF-268; TK-10; HOP-92; OVCAR-4; HCT-15; HOP-62; NCI-H460.
Assay in all cases: NCI anticancer screen, dose series, 48 h

Each structure is given as a SMILES string.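 Each compound was tested at five concentrations against cells in 96-well plates for 48 hours. GI50 is the concentration that inhibits growth by half.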 The source made the active and inactive calls. No stated cut-off is given here; in the data, active = GI50 up to about 1.1 µM and inactive = higher.

Turning to `O=C1C(c2c(O)[nH]c3ccc(Br)cc23)=Nc2ccc(Br)cc21`, the GI50 is > 100 µM (inactive) with SK-MEL-28; 1.71 µM (inactive) in the assay with IGROV-1; 16.6 µM (inactive) in the assay on RXF 393; 34 µM (inactive) in the assay with NCI/ADR-RES; > 100 µM (inactive) with SK-MEL-5; 38.1 µM (inactive) in the assay on EKVX. Further, the GI50 in the assay on Hs-578T is 51.4 µM (inactive); in the assay on SW-620 it was 74.5 µM (inactive); in the assay with MDA-N, 31.2 µM (inactive); with SN12C it was 45.2 µM (inactive); in the assay on NCI-H226, > 100 µM (inactive); in the assay with U-251, 18.7 µM (inactive). In addition, the GI50 with SF-268 is 33 µM (inactive); in the assay with TK-10 it was 72.9 µM (inactive); in the assay on HOP-92 it was > 100 µM (inactive); in the assay on OVCAR-4 it was 53.7 µM (inactive); with HCT-15 it was 43 µM; in the assay on HOP-62, 42.1 µM (inactive). Moreover, the GI50 in the assay on NCI-H460 is 37 µM (inactive).
With `O=C1/C(=C\c2cccc(Oc3ccccc3)c2)SC(c2ccccc2)N1c1cccc(Cl)c1` (centres undefined), the GI50 is > 100 µM (inactive) with SK-MEL-28; 64.1 µM (inactive) in the assay on RXF 393; > 100 µM (inactive) in the assay with NCI/ADR-RES; > 100 µM (inactive) in the assay on SK-MEL-5; > 100 µM (inactive) with EKVX; > 100 µM (inactive) in the assay with Hs-578T. Besides, the GI50 in the assay with SW-620, with MDA-N, with SN12C, with NCI-H226, with U-251 and in the assay with SF-268 was > 100 µM (inactive) throughout. In addition, the GI50 in the assay with TK-10 was > 100 µM (inactive); with HOP-92, > 100 µM (inactive); in the assay on OVCAR-4, > 100 µM (inactive); in the assay with HCT-15, greater than 100 µM; with HOP-62, > 100 µM (inactive); with NCI-H460, > 100 µM (inactive).
Consider `N/C(=N\c1ccc(Cl)c(Cl)c1)c1ccccc1N`, for which the GI50 is 24 µM (inactive) in the assay on SK-MEL-28; 13.3 µM (inactive) in the assay on IGROV-1; 32.7 µM (inactive) in the assay on RXF 393; 19.2 µM (inactive) with NCI/ADR-RES; 22.6 µM (inactive) in the assay with SK-MEL-5; 18.3 µM (inactive) with EKVX. The GI50 is 12.3 µM (inactive) with Hs-578T; 63.8 µM (inactive) in the assay with SW-620; 19.6 µM (inactive) in the assay on MDA-N; 42.6 µM (inactive) in the assay with NCI-H226; 30.1 µM (inactive) with U-251; 20.2 µM (inactive) with SF-268. In addition, the GI50 in the assay on TK-10 is 36.8 µM (inactive); in the assay on HOP-92, 2.88 µM (inactive); with OVCAR-4, 50.8 µM (inactive); with HCT-15 it was 28.2 µM; in the assay on HOP-62, 57.4 µM (inactive); with NCI-H460, 34.8 µM (inactive).
As to `O=C1/C(=C\c2cccs2)Oc2ccccc21`, the GI50 in the assay on SK-MEL-28 is > 100 µM (inactive); in the assay with IGROV-1, 26.7 µM (inactive); in the assay with RXF 393 it was 65.8 µM (inactive); in the assay on NCI/ADR-RES it was 54.7 µM (inactive); with SK-MEL-5 it was 51.6 µM (inactive); in the assay with EKVX, 25.9 µM (inactive). Besides, the GI50 in the assay on Hs-578T was 45.7 µM (inactive); in the assay with SW-620 it was > 100 µM (inactive); in the assay with MDA-N, > 100 µM (inactive); in the assay with SN12C, > 100 µM (inactive); in the assay with NCI-H226, 58.1 µM (inactive); in the assay with U-251, 51.6 µM (inactive). The GI50 in the assay on SF-268 is 51.1 µM (inactive); in the assay on TK-10, 90.6 µM (inactive); in the assay with HOP-92, 35.2 µM (inactive); with OVCAR-4, 31.5 µM (inactive); in the assay on HCT-15, 36.6 µM; in the assay with HOP-62, 39.9 µM (inactive). Besides, the GI50 in the assay on NCI-H460 was 53.1 µM (inactive).

For the origin of these results see ChEMBL document CHEMBL1201862, “PubChem BioAssay data set” (2004).
